# Source: patent US20250281457A1, “TREATMENT OR PREVENTION OF DENGUE VIRAL INFECTION” (Janssen Pharmaceuticals, Inc., priority 2022, published 2025)
# Read-outs that look alike come from different tables or passages of the source.
# Assay: Effect of food on plasma pharmacokinetics after single oral dose of SF2a/b (Example 2)
# Type: in vivo, human
# Details: both sexes, human, plasma, oral; for Tmax: read-out: tmax, Median
# Experimental: The effect of food on the pharmacokinetics (PK) of Compound (a) was assessed in healthy participants after a single oral dose of SF2a/b, described in Example 1, administered at different dose levels in a randomized single dose, 2-period crossover study. The effect of food on the PK of Compound (a) was determined at 3 different dose levels (50 mg, 200 mg, and 800 mg) for a standardized breakfast; at one dose level (800 mg) for a high-fat, high-calorie breakfast; at two dose levels (200 mg and 800 mg) for a low-fat, low-calorie breakfast, as well as for a low-fat, high-calorie breakfast. 124 healthy adult participants (male and female, 18 to 55 years of age) were enrolled in this study. The volunteers were divided in six panels, which were organized as follows: • Panel […]: • Treatment D: A single 800-mg dose (4×200-mg tablets) of Compound (a) SF2b in fasted conditions. • Treatment E: A single 800-mg dose (4×200-mg tablets) of Compound (a) SF2b in fed conditions (standardized breakfast). • Treatments D and E (treatment sequence group 1 [n=8]: DE; treatment sequence group 2 [n=8]: ED). Panel 4, n=14: • Treatment F: A single 200-mg dose (1×200-mg tablet) of Compound (a) SF2b in fasted conditions. • Treatment G: A single 200-mg dose (1×200-mg tablet) of Compound (a) SF2b, in fed conditions (standardized breakfast). • Treatments F and G (treatment sequence group 1 [n=7]: FG; treatment sequence group 2 [n=7]: GF). Panel […]: • Treatment H: A single 50-mg dose (1×50-mg tablet) of Compound (a) SF2a in fasted conditions. • Treatment I: A single 50-mg dose (1×50-mg tablet) of Compound (a) SF2a in fed conditions (standardized breakfast). • Treatments H and I (treatment sequence group 1 [n=7]: HI; treatment sequence group 2 [n=7]: IH). Panel 6 (n=16): • Treatment J: single 800-mg dose (4×200-mg tablets) of Compound (a) administered as SF2b in fasted conditions. • Treatment K: single 800-mg dose (4×200-mg tablets) of Compound (a) administered as SF2b in fed conditions (high-fat, high-calorie breakfast). • Treatments J and K (treatment sequence group 1 [n=8]: JK; treatment sequence group 2 [n=8]: KJ). Panel 7 (n=32): • Treatment L: single 800-mg dose (4×200-mg tablets) of Compound (a) administered as SF2b in fed conditions (low-fat, low-calorie breakfast). • Treatment M: single 800-mg dose (4×200-mg tablets) of Compound (a) administered as SF2b in fed conditions (low-fat, high-calorie breakfast). • Treatment L (n=16) or Treatment M (n=16). Panel 8 (n=32): • Treatment N: single 200-mg dose (1×200-mg tablet) of Compound (a) administered as SF2b in fed conditions (low-fat, low-calorie breakfast). • Treatment O: single 200-mg dose (1×200-mg tablet) of Compound (a) administered as SF2b in fed conditions (low-fat, high-calorie breakfast). • Treatment N (n=16) or Treatment O (n=16). Tablets were administered orally, together with approximately 240 mL of non-carbonated water, in fasted or fed conditions. […] On day 1 of all treatments in each panel, the participants had fasted overnight for at least 10 hours before study drug intake. Intake of water was not allowed from 2 hours before and until 2 hours after study drug intake, except for the water used for study drug intake and breakfast. In case of intake in fed conditions, study drug was administered within 10 minutes after completing a standardized breakfast (Treatments E, G, and I), or a high-fat, high-calorie breakfast (Treatment K), a low-fat, low-calorie breakfast (Treatments L and N), or a low-fat, high-calorie breakfast (Treatments M and O). For treatments E, G, and I a standardized breakfast was served, consisting of (or its equivalent) 4 slices of bread, 2 slices of ham or cheese, butter, jelly, and 1 or 2 cups (up to 355 mL) of decaffeinated coffee or tea with milk and/or sugar, if desired (containing approximately: fat: 21 g, carbohydrates: 67 g, proteins: 19 g; total calories: 533 kcal). For treatment K in a high-fat, high-calorie breakfast was served. […]
compound,measurement,setting,value
COc1cc(NC(C(=O)c2c[nH]c3ccc(OC(F)(F)F)cc23)c2ccc(Cl)cc2OC)cc(S(C)(=O)=O)c1 (stereo not drawn) [Compound (a)],AUC(0-inf),"200 mg, 200 mg SF2b, fed, standardized breakfast (Tables 5E, 5G), read-out: AUC∞, Geometric LS Means Treatment G",103 µg·h/mL
same,Cmax,"200 mg, 200 mg SF2b, fed, standardized breakfast (Tables 5E, 5G), read-out: Cmax, Geometric LS Means Treatment G",961 ng/mL
same,AUC(0-t),"200 mg, 200 mg SF2b, standardized breakfast, linear mixed effects model (Table 5B), read-out: AUClast, Geometric Mean Treatment G",102 µg·h/mL
same,AUC(0-inf),"200 mg, 200 mg SF2b, standardized breakfast, linear mixed effects model (Table 5B), read-out: AUC∞, Geometric Mean Treatment G",104 µg·h/mL
same,Cmax,"200 mg, 200 mg SF2b, standardized breakfast, linear mixed effects model (Table 5B), read-out: Cmax, Geometric Mean Treatment G",984 ng/mL
same,AUC(0-t),"200 mg, Treatment F: single 200 mg (SF2b), fasted, read-out: AUClast, Geo. Mean",61.1 µg·h/mL
same,AUC(0-t),"200 mg, Treatment F: single 200 mg (SF2b), fasted, read-out: AUClast, Mean",64.8 µg·h/mL
same,AUC(0-t),"200 mg, Treatment F: single 200 mg (SF2b), fasted, read-out: AUClast, Median",59 µg·h/mL
same,AUC(0-inf),"200 mg, Treatment F: single 200 mg (SF2b), fasted, read-out: AUC∞, Geo. Mean",59.6 µg·h/mL
same,AUC(0-inf),"200 mg, Treatment F: single 200 mg (SF2b), fasted, read-out: AUC∞, Mean",62 µg·h/mL
same,AUC(0-inf),"200 mg, Treatment F: single 200 mg (SF2b), fasted, read-out: AUC∞, Median",58.5 µg·h/mL
same,Cmax,"200 mg, Treatment F: single 200 mg (SF2b), fasted, read-out: Cmax, Geo. Mean",573 ng/mL
same,Cmax,"200 mg, Treatment F: single 200 mg (SF2b), fasted, read-out: Cmax, Mean",602 ng/mL
same,Cmax,"200 mg, Treatment F: single 200 mg (SF2b), fasted, read-out: Cmax, Median",580 ng/mL
same,half-life,"200 mg, Treatment F: single 200 mg (SF2b), fasted, read-out: t1/2, term, Geo. Mean (converted)",188 h
same,half-life,"200 mg, Treatment F: single 200 mg (SF2b), fasted, read-out: t1/2, term, Mean (converted)",205 h
same,half-life,"200 mg, Treatment F: single 200 mg (SF2b), fasted, read-out: t1/2, term, Median (converted)",174 h
same,Tmax,"200 mg, Treatment F: single 200 mg (SF2b), fasted",7.5 h
same,AUC(0-t),"200 mg, Treatment G: single 200 mg (SF2b), fed, standardized breakfast, read-out: AUClast, Geo. Mean",97.2 µg·h/mL
same,AUC(0-t),"200 mg, Treatment G: single 200 mg (SF2b), fed, standardized breakfast, read-out: AUClast, Mean",100 µg·h/mL
same,AUC(0-t),"200 mg, Treatment G: single 200 mg (SF2b), fed, standardized breakfast, read-out: AUClast, Median",89.5 µg·h/mL
same,AUC(0-inf),"200 mg, Treatment G: single 200 mg (SF2b), fed, standardized breakfast, read-out: AUC∞, Geo. Mean",102 µg·h/mL
same,AUC(0-inf),"200 mg, Treatment G: single 200 mg (SF2b), fed, standardized breakfast, read-out: AUC∞, Mean",106 µg·h/mL
same,AUC(0-inf),"200 mg, Treatment G: single 200 mg (SF2b), fed, standardized breakfast, read-out: AUC∞, Median",95.3 µg·h/mL
same,Cmax,"200 mg, Treatment G: single 200 mg (SF2b), fed, standardized breakfast, read-out: Cmax, Geo. Mean",961 ng/mL
same,Cmax,"200 mg, Treatment G: single 200 mg (SF2b), fed, standardized breakfast, read-out: Cmax, Mean",996 ng/mL
same,Cmax,"200 mg, Treatment G: single 200 mg (SF2b), fed, standardized breakfast, read-out: Cmax, Median",892 ng/mL
same,half-life,"200 mg, Treatment G: single 200 mg (SF2b), fed, standardized breakfast, read-out: t1/2, term, Geo. Mean (converted)",193 h
same,half-life,"200 mg, Treatment G: single 200 mg (SF2b), fed, standardized breakfast, read-out: t1/2, term, Mean (converted)",198 h
same,half-life,"200 mg, Treatment G: single 200 mg (SF2b), fed, standardized breakfast, read-out: t1/2, term, Median (converted)",208 h
same,Tmax,"200 mg, Treatment G: single 200 mg (SF2b), fed, standardized breakfast",8 h
same,AUC(0-t),"800 mg, 800 mg SF2b, fasted, linear mixed effects model (Table 5A), read-out: AUClast, Geometric Mean Treatment D",140 µg·h/mL
same,AUC(0-inf),"800 mg, 800 mg SF2b, fasted, linear mixed effects model (Table 5A), read-out: AUC∞, Geometric Mean Treatment D",148 µg·h/mL
same,Cmax,"800 mg, 800 mg SF2b, fasted, linear mixed effects model (Table 5A), read-out: Cmax, Geometric Mean Treatment D",1220 ng/mL
same,AUC(0-t),"800 mg, 800 mg SF2b, fasted, read-out: AUClast, Geometric LS Means Treatment J",107 µg·h/mL
same,AUC(0-inf),"800 mg, 800 mg SF2b, fasted, read-out: AUC∞, Geometric LS Means Treatment J",110 µg·h/mL
same,Cmax,"800 mg, 800 mg SF2b, fasted, read-out: Cmax, Geometric LS Means Treatment J",991 ng/mL
same,AUC(0-t),"800 mg, 800 mg SF2b, fed, high-fat, high-calorie breakfast, read-out: AUClast, Geometric LS Means Treatment K",421 µg·h/mL
same,AUC(0-inf),"800 mg, 800 mg SF2b, fed, high-fat, high-calorie breakfast, read-out: AUC∞, Geometric LS Means Treatment K",422 µg·h/mL
